From ChEMBL document CHEMBL3507680, “University of Dundee, Gates Library screen for HepG2 cell viability”

Assay: Human HepG2 cell viability assay in 384 well format
Format: toxicity, cell-based
Parameters: dose 125 nL, time 70.5 hour; cytotoxicity at 70.5 h: concentration not given beside the values
Settings: HepG2 cells, read-out: Inhibition

SMILES	cytotoxicity at 70.5 h [%]
CC(C)n1nccc1C(=O)N1CCC(c2nnsc2S(C)(=O)=O)CC1	-6.33
O=C(Cc1ccn[nH]1)N1CCc2cc(Br)sc2C1	-6.46
Cc1noc(C)c1CNC1CCN(c2ccccc2OC(F)F)C1 (stereo not drawn)	-3.18
CCOc1ccc(N(CCC#N)C(=O)c2ccc(OC)nc2)cc1	1.85
CC(NC(=O)NC1CCN(Cc2ccccn2)CC1)c1ccco1 (stereo not drawn)	-1.3
Cc1ccc(C(C)NC(=O)N2CCN(S(C)(=O)=O)CC2)o1 (stereo not drawn)	1.52
CC(NC(=O)NC1CCN(Cc2ccccc2)CC1)c1nncn1C (stereo not drawn)	2.2
CC(C)CN1CCC(C(=O)NCCNC(=O)c2ccoc2)CC1	-1.22
CC(C)CN1CCC(C(=O)NCCNC(=O)c2ccccc2)CC1	-4.76
CC(C)NC(=O)CCNC(=O)c1c(Br)c2ccccc2n1C	-0.338
N#Cc1cnn(C(=O)CCCOc2ccccc2Cl)c1N	9.75
COCc1cccc(CNc2cnn(C(C)(C)C)c(=O)c2Cl)c1	41
Cc1nc(CC(=O)N2CCN(C)CC2c2ccccc2)cs1 (stereo not drawn)	-0.955
COc1ccccc1OCC(=O)n1ncc(C#N)c1N	9.32
COCc1ccc(CNc2cnn(C(C)(C)C)c(=O)c2Cl)cc1	19.8
CC(=O)c1ccc(N2CCN(C(=O)NC(C)c3ccc(C)o3)CC2)cc1 (stereo not drawn)	-3.78
O=S(=O)(Nc1ccc(N2CCOCC2)cn1)c1ccc(F)cc1	9.02
CC(NC(C)(C)CN)c1ccccc1 (stereo not drawn)	-0.00601
Cc1ccc(CNC(C)c2cc(F)ccc2N2CCN(C)CC2)o1 (stereo not drawn)	0.758
Cc1ccc(C)c(SCC(=O)Nc2cccc(C(=O)N(C)C)n2)c1	11.9
Cc1ccc(C)c(CC(=O)Nc2cccc(C(=O)N(C)C)n2)c1	5.58
Cc1cc(F)cc2c(NCC(C)(C)C(N)=O)c(C#N)cnc12	11.6
CCS(=O)(=O)NCCNc1c(C#N)cnc2c(C)cc(F)cc12	2.54
CC(C)(C)NC(=O)N1CCC(NC(=O)Cc2cccnc2)CC1	-3.09

SMILES	cytotoxicity at 70.5 h [%]
CCc1cccc(CC(=O)NC2CCN(C(=O)NC(C)(C)C)CC2)c1	1.52
N#CCCCS(=O)(=O)NC(=O)c1cccc(Cl)c1F	-2.7
Cc1csc(N2CCCN(C(=O)c3cccs3)CC2)n1	3.15
COc1cc(CC(=O)Nc2cccc(C(=O)N(C)C)n2)ccc1C	46.5
CCOc1ccc(N(CCC#N)C(=O)c2ccc(SC)nc2)cc1	-4
CC(NC(=O)NC1CCN(Cc2ccccn2)CC1)c1nncn1C (stereo not drawn)	-2
COc1ccc(N(C)C(=O)C2CN(C)CCO2)cc1F (stereo not drawn)	-12.3
Cn1ccnc1CN1CCCCC1c1nc(-c2ccccc2)no1 (stereo not drawn)	-10.6
COc1ccc2c(c1)CCCN2C(=O)c1cccc(N(C)C)c1	3.26
Cc1cc(C2CCCN2C(=O)COc2ccc(CC#N)cc2)no1 (stereo not drawn)	-7.35
O=C(Nc1c(N2CCCC2)cccc1N1CCCC1)c1ccccn1	-12.8
O=C1OCCN1CCSc1nnnn1C1CCOCC1	-17.6
COc1cc(Br)c(CNC(C)c2nnc3n2CCC3)cc1OC (stereo not drawn)	10.6
O=C(C[S+]([O-])Cc1csc(C2CCCC2)n1)NC1CCCC1 (stereo not drawn)	-1.25
CC(C)(C)c1nccc(N2CCC(OCCN3CCCCC3)C2)n1 (stereo not drawn)	-6.69
CC(=O)N1CCCc2cc(Nc3nccn(C)c3=O)ccc21	-7.29
Cn1ccnc(Nc2ccc3c(c2)CCN3C(=O)c2ccoc2)c1=O	-10
Cn1ccnc(Nc2ccc3c(c2)CCN3C(=O)c2cccnc2)c1=O	-11.5
CCOc1c(Br)cc(CNC(C)c2nnc3n2CCC3)cc1OC (stereo not drawn)	-4.89
CC(C)S(=O)(=O)NC(=O)CC(c1ccccc1)C(F)(F)F (stereo not drawn)	-9.01
CCc1nc(Cn2nc(COC)oc2=O)cs1	-9.78
FC(F)(F)Cn1nnnc1SCCN1CCCCC1	-7.69
COc1ccc2c(c1)CC(NCc1cccc(CO)c1)CC2 (stereo not drawn)	-6.72
Cc1ccnc(N2CCC(OCCN3CCCCC3)C2)n1 (stereo not drawn)	-8.76

SMILES	cytotoxicity at 70.5 h [%]
c1cnc(N2CCC(OCCN3CCCCC3)C2)nc1 (stereo not drawn)	-10.2
Cc1cc(C)nc(N2CCC(OCCN3CCCCC3)C2)n1 (stereo not drawn)	8.57
CN(c1cccnc1N1CCCC1)S(=O)(=O)c1cnn(C)c1	5.43
CC(Cn1cccn1)NCC(=O)NC1CCOCC1 (stereo not drawn)	6.94
Cc1nn(C)c(C)c1NC(=O)CNC(c1ccc(F)cc1)C1CCC1 (stereo not drawn)	-7.04
CCCN(CC(=O)OC)C(=O)c1sc(C)nc1C	-15.4
Cc1ccc2nc(CN(C)Cc3ccc(C)o3)cc(=O)n2c1	-15
Cc1ccc2nc(CN(Cc3ccc(C)o3)C(C)C)cc(=O)n2c1	-11.5
Cc1ccc2nc(CN(Cc3ccc(C#N)cc3)C(C)C)cc(=O)n2c1	20.2
CN(CC(=O)Nc1cc(C(F)(F)F)c[nH]c1=O)Cc1ccccc1	-11.2
CN(C)C(CNS(=O)(=O)c1cnn(C)c1)c1cccc(F)c1 (stereo not drawn)	-1.66
CCCC(NC(=O)c1ccccn1)c1nnc2ccccn12 (stereo not drawn)	-12.2
Cc1ncc2c(n1)CN(Cc1ncc(C(C)(C)C)o1)CC2	-13.9
CN(Cc1ccccn1)C(=O)Nc1cc(C(F)(F)F)c[nH]c1=O	-1.8
Cc1cc(C)c(CNC(=O)N2CCCN(C(=O)C(C)C)CC2)c(C)c1	15.9
CCCC(=O)NCC(=O)Nc1cc(F)ccc1SCC(F)F	2.19
CC(C(=O)N(Cc1ccc(F)cc1)CC(F)(F)F)S(C)(=O)=O (stereo not drawn)	-1.63
COc1cc2c(nn1)CCN(Cc1ncc(C(C)(C)C)o1)C2	-5.34
CCc1ccsc1CNC(=O)CNC(=O)C(C)(C)C	-7.92
CCC(CO)NC(=O)Nc1cc(F)ccc1Br (stereo not drawn)	-9.27
O=C1CCCN1CCCN1CCCC1Cn1cccn1 (stereo not drawn)	8.99
CCn1ccnc1CN1CCN(c2ccc3nnc(C)n3n2)CC1	-8.35
COc1ccccc1NC(=O)CC(C)NCCc1sc(C)nc1C (stereo not drawn)	8.63
CCc1c(NCc2ccncc2)cnn1CC(C)C	-5.95

SMILES	cytotoxicity at 70.5 h [%]
COC(=O)CCCN(C)C(c1cccnc1)c1ccc(F)cc1F (stereo not drawn)	5.6
CCN(Cc1cnn(C)c1)S(=O)(=O)c1ccc(NC(C)=O)cc1	9.84
O=C(CN1CCCc2cc(F)cc(F)c21)Nc1ccc(Br)cn1	-3.51
COc1cccc2c1N(CC(=O)Nc1ccc(Br)cn1)CCC2	-3.62
Cc1ccc(Cl)cc1NS(=O)(=O)c1cc(C(N)=O)n(C)c1	-0.833
O=C(NCCNc1ncccn1)c1ccc(Cl)s1	-5.84
CN(Cc1ccc(Cl)s1)C(=O)NCCN1CCCCCC1=O	-3.32
COC(=O)C(C)(C)NC(=O)c1cnc(C(C)(C)C)s1	-1.58
CC(C)(NC(=O)c1cnc(C(C)(C)C)s1)C(N)=O	28.5
CC(C)c1ccc(O)c(C(=O)NCc2nncn2C)c1	-6.12
O=C(NCCN1CCCCCC1=O)NCc1ccc(Cl)s1	2.1
CC(Oc1ccc(F)cc1)C(=O)N(CC(N)=O)C1CCCC1 (stereo not drawn)	0.347
COc1ccc(CNC(=O)CCn2cc(C)cn2)cc1C	26.7
CC(Oc1cccc(F)c1)C(=O)N(CC(N)=O)C1CCCC1 (stereo not drawn)	0.47
CN(CC(=O)NCC(O)c1cccc(F)c1)C(=O)OC(C)(C)C (stereo not drawn)	-3.05
CC(C)c1ccc(O)c(C(=O)NCc2cc[nH]n2)c1	20.8
Cc1ccc(CC(NC(=O)CCS(C)(=O)=O)c2ccccn2)cc1 (stereo not drawn)	0.0206
CNC(=O)c1cc(NC(=O)NC(C)CCc2cccn2C)ccc1F (stereo not drawn)	22.7
CNC(=O)c1cccc(NC(=O)NC(C)CCc2cccn2C)c1C (stereo not drawn)	5.28
Cn1cc(S(=O)(=O)Nc2ccc(Cl)cn2)cc1C(N)=O	-3.76
Cc1ccnc(NS(=O)(=O)c2cc(C(N)=O)n(C)c2)c1	0.984
O=C1NCCCCC1NC(=O)C1(c2ccc3c(c2)OCCO3)CCCC1 (stereo not drawn)	27.7
COc1ccc(CCNC(=O)C2CC2)c(Cl)c1	-1.42
CC1(NC(=O)CC2CCc3ccccc32)CCOCC1 (stereo not drawn)	-2.46

SMILES	cytotoxicity at 70.5 h [%]
COCCOc1ccc(S(=O)(=O)Nc2cccc(O)c2F)cc1C	-7.45
CCN(Cc1cnn(C)c1)S(=O)(=O)c1ccc(NC(=O)C(C)(C)C)cc1	2.92
CC1CN(C)CCN1C(=O)c1cccn1Cc1cccnc1 (stereo not drawn)	-7.82
COc1ccc(C(=O)NC2CCN(c3ncccn3)CC2)cc1F	-8.33
O=C(Cn1cccnc1=O)NCc1cccnc1OCC(F)(F)F	2.5
Cc1cccc(S(=O)(=O)NC2CCN(CC(F)(F)F)C2)c1 (stereo not drawn)	-15.5
Cc1cnn(C2CCCN(C(=O)c3cc(-c4cccs4)n[nH]3)C2)c1 (stereo not drawn)	-4.05
C=C(C)CN(CC)C(=O)Nc1ccccc1CN(C)C(C)=O	-12.6
COCCN(CC(F)F)c1cc(C(F)(F)F)nc2ncnn12	-7.29
CCOc1ccc(C(=O)NC2CCN(c3ncccn3)CC2)cc1C	-0.65
CCN(CC)CCN(CC(C)C)c1cc(C(F)(F)F)nc2ncnn12	0.687
CC(NC(=O)c1ccc(C(N)=O)cc1)c1cccc(N2CCOC2=O)c1 (stereo not drawn)	0.0239
c1ccc2oc(N3CCC(c4nncn4C4CC4)CC3)nc2c1	29.8
CC(O)CN(C)S(=O)(=O)c1ccc(C#N)cc1F (stereo not drawn)	-2.23
COc1ccc(S(=O)(=O)Nc2cccnc2-n2cncn2)cc1C	0.714
COc1cccc(NC(=O)CN(C(C)C)C2CC2)c1	-2.69
CC1CN(Cc2cccc(CN)c2)CCO1 (stereo not drawn)	-9.2
CC(C(=O)NCc1ccc(F)cc1)N(C)CCN1CCOCC1 (stereo not drawn)	24.4
Cn1cc([C@@H]2CN(S(=O)(=O)c3cccs3)C[C@H]2N)c2ccncc21	4.81
Cn1cc([C@@H]2CN(S(=O)(=O)c3ccccc3F)C[C@H]2N)c2ccncc21	19
Cc1ccc(S(=O)(=O)NC(C)(C)CN)c(F)c1	-1.04
CCOc1c(Br)cc(CNCCc2nnc3n2CCCCC3)cc1OC	-10.5
